Converted amounts (≈) assume the structure as drawn. “And” between values parts separate entries of the source, which are not always exact repeats. Equal entries are not always repeated. Where two headings read alike, the source gives them in different places. Marks after values point to notes of the source that are not given here.
What was measured:
S. pneumoniae = experiment: microbe, parasite or virus in culture; format: cell-based
U. urealyticum = experiment: MIC testing in 10B broth (colour change); format: cell-based; conditions: Ureaplasma urealyticum; U. urealyticum (10 isolates)
M. hominis = format: cell-based; conditions: M. hominis (13 isolates)
M. fermentans = format: cell-based; conditions: M. fermentans (15 isolates)
M. pneumoniae = experiment: microbe, parasite or virus in culture; format: cell-based
M. genitalium = format: cell-based; conditions: M. genitalium (5 isolates)
streptococci = experiment: organism not typed; format: cell-based
U. parvum = experiment: MIC testing in 10B broth (colour change); format: cell-based, Ureaplasma parvum; conditions: Ureaplasma parvum, U. parvum (10 isolates)
N. meningitidis = experiment: MIC, CLSI broth microdilution, invasive isolates; format: cell-based; conditions: for % Susc. / % Res.: CLSI (M100-S19, 2009) criteria; for MIC / MIC50 / MIC90: Neisseria meningitidis
Method: Example. […] Colonization of the nasopharynx (NP) by NM can lead to invasive meningococcal disease. Chemoprophylaxis is used to eradicate NP colonization and prevent transmission to nonimmune contacts. […] 62 isolates (91.9% blood culture) of NM were collected from 29 medical centers in North and South America and Europe (1997-2008). […] Serological identification was performed for serogroups (SGs) B, C, Y and W135.

group A streptococci = experiment: microbe, parasite or virus in culture; format: cell-based, S. pyogenes
pneumococci = experiment: microbe, parasite or virus in culture; format: cell-based, S. pneumoniae
Legionella pneumophila = experiment: microbe, parasite or virus in culture; format: cell-based, L. pneumophila
Mycobacterium bovis BCG = format: cell-based
M. catarrhalis = experiment: microbe, parasite or virus in culture; format: cell-based
[1] = Streptococcus pneumoniae, pneumococci, L4 mutations (27)

In the case of CC(=O)NC[C@H]1CN(c2ccc(N3CCOCC3)c(F)c2)C(=O)O1 [Linezolid, linezolid], the MIC90 (S. pneumoniae; Streptococcus pneumoniae) is reported as 2 µg/mL (≈ 5.93 µM), the MIC50 (U. urealyticum) is reported as > 256 µg/mL and the MIC90 (U. urealyticum) is reported as > 256 µg/mL. The “MIC Range” value (M. hominis) was 1 to 8 µg/mL, the MIC50 (M. hominis; Metamycoplasma hominis, read-out: MIC50) was 2 µg/mL (≈ 5.93 µM) and the MIC90 (M. hominis; Metamycoplasma hominis, read-out: MIC90) was 4 µg/mL (≈ 11.9 µM). For the same compound, the “MIC Range” value (M. fermentans) was 0.5 to 4 µg/mL, the MIC50 (M. fermentans; Mycoplasmopsis fermentans) was 1 µg/mL (≈ 2.96 µM) and the MIC90 (M. fermentans; Mycoplasmopsis fermentans) was 4 µg/mL (≈ 11.9 µM). The “MIC Range” value (M. pneumoniae) was 32 to 128 µg/mL, the MIC50 (M. pneumoniae; Mycoplasmoides pneumoniae) was 64 µg/mL (≈ 190 µM) and the MIC90 (M. pneumoniae; Mycoplasmoides pneumoniae) was 128 µg/mL (≈ 379 µM). The “MIC Range” value (M. genitalium) was 4 to 128 µg/mL, the MIC50 (streptococci) was 1 µg/mL (≈ 2.96 µM) and the MIC90 (streptococci) was 2 µg/mL (≈ 5.93 µM). The “MIC 90%” value (streptococci) was 1 µg/mL (≈ 2.96 µM), the “MIC Range” value (streptococci) was 0.25 to 2 µg/mL and 0.5 to 2 µg/mL and the MIC50 (U. parvum; read-out: MIC50) was > 256 µg/mL. The MIC90 (U. parvum; read-out: MIC90) was > 256 µg/mL.

With CN(C)c1ccc(O)c2c1C[C@H]1C[C@H]3[C@H](N(C)C)C(O)=C(C(N)=O)C(=O)[C@@]3(O)C(O)=C1C2=O [Minocycline] the “% Susc.” value (N. meningitidis) was 100.0%, the MIC (N. meningitidis; 62 N. meningitidis isolates) was 0.008 to 0.25 µg/mL (≈ 0.0175 to 0.546 µM) and the MIC50 (N. meningitidis; 62 N. meningitidis isolates) was 0.12 µg/mL (≈ 0.262 µM). The MIC90 (N. meningitidis; 62 N. meningitidis isolates) was 0.12 µg/mL (≈ 0.262 µM).

In the case of COc1c(N2C[C@@H]3CCCN[C@@H]3C2)c(F)cc2c(=O)c(C(=O)O)cn(C3CC3)c12 [Moxi], the MIC50 (group A streptococci) is reported as 0.25 µg/mL (≈ 0.623 µM), the MIC90 (group A streptococci) is reported as 0.25 µg/mL (≈ 0.623 µM) and the “MIC Range” value (group A streptococci) is reported as 0.125 to 0.25 µg/mL and 0.125 to 0.5 µg/mL. The MIC50 (pneumococci) was 0.25 µg/mL (≈ 0.623 µM), the “MIC Range” value (pneumococci) was 0.125 to 4 µg/mL and the MIC range (pneumococci) was 0.125 to 8 µg/mL.

With CC1(C)S[C@@H]2[C@H](NC(=O)Cc3ccccc3)C(=O)N2[C@H]1C(=O)O [Pen G] the MIC50 (group A streptococci) was 0.015 µg/mL (≈ 0.0449 µM), the MIC90 (group A streptococci) was 0.015 µg/mL and 0.03 µg/mL and the “MIC Range” value (group A streptococci) was <0.008 to 0.125 µg/mL and 0.008 to 0.015 µg/mL and <0.008 to 0.015 µg/mL and 0.015 µg/mL. For the same compound, the MIC50 (pneumococci) was 1 µg/mL (≈ 2.99 µM), the MIC90 (pneumococci) was 2 µg/mL and 4 µg/mL and the MIC range (pneumococci) was 0.015 to 8 µg/mL.

CC1(C)S[C@@H]2[C@H](NC(=O)Cc3ccccc3)C(=O)N2[C@H]1C(=O)O [Penicillin G] was tested, and the MIC50 (group A streptococci) was 0.015 µg/mL (≈ 0.0449 µM), the MIC90 (group A streptococci) was 0.015 µg/mL and 0.03 µg/mL and the MIC50 (pneumococci; pneumococci, L4 mutations (27)) was 4 µg/mL (≈ 12 µM). For the same compound, the MIC90 (pneumococci; pneumococci, L4 mutations (27)) was 16 µg/mL (≈ 47.8 µM).

CO[C@H]1/C=C/O[C@@]2(C)Oc3c(C)c(O)c4c(O)c(c(/C=N/N5CCN(C)CC5)c(O)c4c3C2=O)NC(=O)/C(C)=C\C=C\[C@H](C)[C@H](O)[C@@H](C)[C@@H](O)[C@@H](C)[C@H](OC(C)=O)[C@@H]1C [Rifampin] was tested, and the “% Res.” value (N. meningitidis) was 0.0%, the “% Susc.” value (N. meningitidis) was 100.0% and the MIC (N. meningitidis; 62 N. meningitidis isolates) was 0.008 to 0.12 µg/mL (≈ 0.00972 to 0.146 µM). The MIC50 (N. meningitidis; 62 N. meningitidis isolates) was 0.015 µg/mL (≈ 0.0182 µM), the MIC90 (N. meningitidis; 62 N. meningitidis isolates) was 0.06 µg/mL (≈ 0.0729 µM) and the “MIC Range” value (Legionella pneumophila; LPN (30)) was 0.03-0.06^a μg/ml. For the same compound, the MIC50 (Legionella pneumophila; Legionella pneumophila) was 0.03 µg/mL (≈ 0.0365 µM), the MIC90 (Legionella pneumophila; Legionella pneumophila) was 0.03 µg/mL (≈ 0.0365 µM) and the “reduction of lethality by growth arrest” value (Mycobacterium bovis BCG; DETA-NO-induced growth arrest) was “no effect”.

COc1c(N2C[C@@H]3CCCN[C@@H]3C2)c(F)cc2c(=O)c(C(=O)O)cn(C3CC3)c12 [moxifloxacin] was tested, and the MIC50 (group A streptococci; Streptococcus pyogenes) was 0.25 µg/mL (≈ 0.623 µM), the MIC90 (group A streptococci; Streptococcus pyogenes) was 0.25 µg/mL (≈ 0.623 µM) and the MIC50 (pneumococci; [1]) was 0.25 µg/mL (≈ 0.623 µM). The MIC90 (pneumococci; [1]) was 0.5 µg/mL (≈ 1.25 µM), the MIC (pneumococci; Streptococcus pneumoniae, read-out: MIC range, pneumococci, L4 mutations (27)) was 0.125 to 4 µg/mL (≈ 0.311 to 9.96 µM) and the “activity during growth arrest relative to gatifloxacin” value (Mycobacterium bovis BCG; growth-arrested cells) was 2 fold.

With Amoxicillin Clavulanate the MIC50 (pneumococci; pneumococci, L4 mutations (27)) was 4 µg/mL and the MIC90 (pneumococci; pneumococci, L4 mutations (27)) was 8 µg/mL.

With amoxicillin/clavulanate the nonsusceptibility (S. pneumoniae) was 88.9%, the MIC50 (group A streptococci) was 0.03 µg/mL and <0.015 µg/mL and 0.015 µg/mL and the MIC90 (group A streptococci) was 0.03 µg/mL and 0.06 µg/mL. For the same compound, the “MIC Range” value (group A streptococci) was 0.015 to 0.03 µg/mL and 0.03 µg/mL, the “MIC Range” value (pneumococci) was 0.015 to 16 µg/mL and the MIC50 (pneumococci; pneumococci, L4 mutations (27)) was 4 µg/mL. The MIC90 (pneumococci; pneumococci, L4 mutations (27)) was 8 µg/mL and the MIC range (pneumococci; pneumococci, L4 mutations (27)) was 0.125 to 8 µg/mL.

In the case of quinupristin/dalfopristin [Q/D], the “MIC 90%” value (S. pneumoniae) is reported as 1 µg/mL, the susceptible (S. pneumoniae) is reported as 100.0% and the “MIC 50%” value (streptococci) is reported as 0.5 µg/mL. The “MIC 90%” value (streptococci) was 0.5 µg/mL and 1 µg/mL and the “MIC 90%” value (M. catarrhalis) was 0.5 µg/mL.

trimethoprim/sulfamethoxazole [TMP/SMX] was tested, and the nonsusceptibility (S. pneumoniae) was 100.0%, the “MIC 50%” value (N. meningitidis; 62 N. meningitidis isolates) was 0.5 µg/mL and the “MIC 90%” value (N. meningitidis; 62 N. meningitidis isolates) was 2 µg/mL. For the same compound, the “MIC Range” value (N. meningitidis; 62 N. meningitidis isolates) was “≦0.06-4 μg/ml”, the “% Res.” value (N. meningitidis) was 59.7% and the “% Susc.” value (N. meningitidis) was 37.1%.
